Experimental findings from US20250388571A1, “AMP-ACTIVATED PROTEIN KINASE MODULATOR COMPOUNDS AND USES THEREOF” (Biolexis Therapeutics, Inc., priority 2024, published 2025) are described below.

“Also recorded” adds a separate entry of the source. A value given as a limit tells only on which side of the number the result lay.

One assay deals with AMPK (A2/B1/G1) (Homo sapiens, UniProt P54619+P54646+Q9Y478). In words: AMPK kinase binding activity in activation mode (AC50). Type of assay: biochemical.
Chain of AMPK (A2/B1/G1) (P54646 whole entry): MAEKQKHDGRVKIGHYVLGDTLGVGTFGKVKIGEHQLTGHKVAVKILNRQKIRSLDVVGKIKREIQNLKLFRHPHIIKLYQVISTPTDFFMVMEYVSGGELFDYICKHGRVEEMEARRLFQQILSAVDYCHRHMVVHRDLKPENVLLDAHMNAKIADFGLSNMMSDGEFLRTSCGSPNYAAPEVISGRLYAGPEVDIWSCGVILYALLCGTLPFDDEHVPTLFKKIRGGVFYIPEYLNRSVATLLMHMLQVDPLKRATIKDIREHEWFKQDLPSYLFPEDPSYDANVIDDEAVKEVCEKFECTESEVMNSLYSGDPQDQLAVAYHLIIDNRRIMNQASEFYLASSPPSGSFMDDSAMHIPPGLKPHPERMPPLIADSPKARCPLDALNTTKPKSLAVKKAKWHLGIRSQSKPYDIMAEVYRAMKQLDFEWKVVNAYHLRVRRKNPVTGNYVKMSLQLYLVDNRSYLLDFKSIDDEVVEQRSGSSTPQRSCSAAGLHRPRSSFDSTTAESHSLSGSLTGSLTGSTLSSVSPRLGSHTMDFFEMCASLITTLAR
Chain of AMPK (A2/B1/G1) (Q9Y478 whole entry): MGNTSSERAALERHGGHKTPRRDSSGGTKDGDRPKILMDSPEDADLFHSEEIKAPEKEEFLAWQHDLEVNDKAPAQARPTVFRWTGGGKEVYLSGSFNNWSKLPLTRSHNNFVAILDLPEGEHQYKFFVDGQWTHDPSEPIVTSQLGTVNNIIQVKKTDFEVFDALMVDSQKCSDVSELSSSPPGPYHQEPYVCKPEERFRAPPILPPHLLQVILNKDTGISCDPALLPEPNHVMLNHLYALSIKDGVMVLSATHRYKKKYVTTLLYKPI
Chain of AMPK (A2/B1/G1) (P54619 whole entry): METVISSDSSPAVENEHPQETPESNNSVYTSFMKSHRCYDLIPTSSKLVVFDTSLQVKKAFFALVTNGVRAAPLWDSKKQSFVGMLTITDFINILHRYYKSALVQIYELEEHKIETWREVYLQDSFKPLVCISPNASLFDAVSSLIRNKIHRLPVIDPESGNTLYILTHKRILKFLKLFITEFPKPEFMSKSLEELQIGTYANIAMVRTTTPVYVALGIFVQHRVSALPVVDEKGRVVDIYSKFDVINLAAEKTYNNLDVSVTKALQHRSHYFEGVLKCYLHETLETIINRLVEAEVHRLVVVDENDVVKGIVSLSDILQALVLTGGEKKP
A further assay addresses AMPK (A2/B1/G3) (Homo sapiens, UniProt P54646+Q9UGI9+Q9Y478). The description is as above. Type of assay: biochemical.
A further assay addresses AMPK (A2/B1/G2) (Homo sapiens, UniProt P54646+Q9UGJ0+Q9Y478). The description is as above. Type of assay: biochemical. The source says:
In Vitro AMPK Kinase Inhibition Experiments

The test system of assay [1] is human skeletal muscle cells (HSKM cells). In words: Glucose uptake assay, human skeletal muscle cells. In kind it is cell-based. Particulars: for dose dependence of glucose uptake (printed: activation of insulin / AMPK activation): 100 μM to 0.005 μM, 1 hour; for glucose uptake: starved, treated 1 hour. The method, then:
FIGS. 1-4 show results for cells treated with differing doses of representative compounds of Structure (I) (i.e., compound I-11 in FIG. 1 and compound I-7 in FIG. 2) as well reference compounds (i.e., PF-06409577 in FIG. 3 and MK-8722 in FIG. 4). […] Cells were starved for 3 hours in high glucose DMEM without FBS, then treated with indicated compounds in DMEM without FBS/glucose for 1 hour, and glucose uptake was detected using an uptake glucose kit (Promega). The bars show (from left to right) concentrations of 100 μM, 33 μM, 11 μM, 3.7 μM, 1.23 μM, 0.41 μM, 0.14 μM, 0.045 μM, 0.015 μM, 0.005 μM, 0 μM, and insulin.
(§1) Human skeletal myoblasts were obtained (Thermofisher; BYU) and cultured in DMEM/F12 medium with 10% FBS. For differentiation, 2% horse serum low glucose DMEM medium was employed for 72 hours. Human cardiomyocytes cells (HCM cells; Promocell) were cultured in myocyte growth medium (Promocell). Human preadipocyte HWP-c cells (Promocell) were obtained from upper arm of diabetic II donor. Human preadipocyte HWP-c cells (Promocell) were obtained from abdomen of diabetic II donor. For differentiating human preadipocytes, cells were cultured in preadipocyte growth medium to total confluency stage. The growth medium was replaced with preadipocyte differentiation medium for 72 hours, then changed to PromoCell adipocyte nutrition medium to complete the differentiation process. THLE-2 cells were cultured in BEGM from Lonza/Clonetics Corporation, Walkersville, MD 21793 (BEGM Bullet Kit; CC3170). HepG2, L6 and C2Cl2 cells were cultured in EMEM medium.
(§2) After differentiation myoblasts, preadipocyte cells were starved by removing the medium and adding 100 μL DMEM without serum. The medium was then replaced with 100 μL DMEM±1 μM insulin at indicated concentration of representative compounds without serum or glucose. The cells were then incubated for 1 hour at 37° C. in 5% CO2. The cells were then removed from the medium and 50 μL of 0.1 mM 2DG in PBS was added. Cells were incubated for 30 minutes at 25° C. 25 μL of Stop Buffer was added and samples were mixed. 25 μL of Neutralization Buffer was then added and mixed. 100 μL of 2DG6P Detection Reagent was then added and mixed. Samples were then incubated for 1 hour at 25° C. Luminescence was then recorded with 0.3-1 second integration on a luminometer.

Assay [2] concerns human hepatocytes-THLE-2 cells. As to the kind of experiment: Glucose uptake assay, THLE-2 cells. Type of assay: cell-based. The method, then: FIGS. 13-16 show results for glucose update assays in THLE-2 cells (ATCC, cat. No. CRL-2706) when treated with compound I-11 (FIG. 13), compound I-7 (FIG. 14), MK-8722 (FIG. 15), and PF-06409577 (FIG. 16). The THLE-2 cells were starved for 3 hours in high glucose DMEM without FBS, treated with the components noted above in DMEM without FBS/glucose for 1 hour, and glucose uptake was detected using a glucose uptake kit (Promega). The bars show (from left to right) concentrations of 100 μM, 33 μM, 11 μM, 3.7 μM, 1.23 μM, 0.41 μM, 0.14 μM, 0.045 μM, 0.015 μM, 0.005 μM, 0 μM, and insulin.
as §1, §2

Assay [3] deals with human cardiomyocyte cells (HCM). As to the kind of experiment: Glucose uptake assay, human cardiomyocyte cells. Type of assay: cell-based. Particulars: for AMPK activation activity (glucose uptake assay): 10 doses 100 μM to 0.005 μM; for glucose uptake: donor not stated. Here is the method: FIGS. 17-19 show results for glucose update assays in human cardiomyocyte cells (“HCM”-healthy donor) (Promocell, cat. no. C-12810) when treated with compound I-11 (FIG. 17), compound I-7 (FIG. 18), and PF-06409577 (FIG. 19). After recovered HCM cells for 4 days, cells were starved for 3 hours in high glucose DMEM without FBS, treated with the components noted above in DMEM without FBS/glucose for 1 hour, and glucose uptake was detected using a glucose uptake kit (Promega). […] The bars show (from left to right) concentrations of 100 μM, 33 μM, 11 μM, 3.7 μM, 1.23 μM, 0.41 μM, 0.14 μM, 0.045 μM, 0.015 μM, 0.005 μM, 0 μM, and insulin.
FIGS. 20-22 show results for glucose update assays in human cardiomyocyte cells (“HCM”-diabetic donor) (Promocell, cat. no. C-12810) when treated with compound I-11 (FIG. 20), compound I-7 (FIG. 21), and PF-06409577 (FIG. 22). After recovered HCM cells for 4 days, cells were starved for 3 hours in high glucose DMEM without FBS, treated with the components noted above in DMEM without FBS/glucose for 1 hour, and glucose uptake was detected using a glucose uptake kit (Promega). […] The bars show (from left to right) concentrations of 100 μM, 33 μM, 11 μM, 3.7 μM, 1.23 μM, 0.41 μM, 0.14 μM, 0.045 μM, 0.015 μM, 0.005 μM, 0 μM, and insulin.
as §1, §2

In assay [4] the test system is Human white preadipocyte (HWP) cells. In words: Glucose uptake assay, human white preadipocyte cells. In kind it is cell-based. Particulars: for glucose uptake: human adipocyte cells / HWP-c cells, donor site not stated. The method, then:
(§3) FIGS. 5-8 show results for glucose update assays in Human white preadipocyte (HWP) cells (Promocell, cat. No. C-12735) when treated with compound I-11 (FIG. 5), compound I-7 (FIG. 6), MK-8722 (FIG. 7), and PF-06409577 (FIG. 8). HWP cells (subcutaneous upper arm of obese patient) were starved for 3 hours in DMEM without FBS, treated with the components noted above in […] DMEM without FBS/glucose for 1 hour, and glucose uptake was detected using a glucose uptake kit (Promega). […] The bars show (from left to right) concentrations of 100 μM, 33 μM, 11 μM, 3.7 μM, 1.23 μM, 0.41 μM, 0.14 μM, 0.045 μM, 0.015 μM, 0.005 μM, 0 μM, and insulin.
as §3, with “9-12” for “5-8”, “9),” for “5),”, “10),” for “6),”, “11),” for “7),”, “12).” for “8).”, “(abdomen cells)” for “(subcutaneous upper arm of obese patient)”
as §1, §2

Assay [5] concerns AMPK signal pathway in HSKM cells. As to the kind of experiment: Western blot assay, HSKM cells. Type of assay: cell-based, human. Particulars: some high dosage groups; cell type not given. For orientation: A western blot detects proteins with antibodies after separation by electrophoresis.

Chain of AMPK (A2/B1/G3) (P54646 whole entry): as the sequence (P54646 whole entry) above
Chain of AMPK (A2/B1/G3) (Q9Y478 whole entry): as the sequence (Q9Y478 whole entry) above
Chain of AMPK (A2/B1/G3) (Q9UGI9 whole entry): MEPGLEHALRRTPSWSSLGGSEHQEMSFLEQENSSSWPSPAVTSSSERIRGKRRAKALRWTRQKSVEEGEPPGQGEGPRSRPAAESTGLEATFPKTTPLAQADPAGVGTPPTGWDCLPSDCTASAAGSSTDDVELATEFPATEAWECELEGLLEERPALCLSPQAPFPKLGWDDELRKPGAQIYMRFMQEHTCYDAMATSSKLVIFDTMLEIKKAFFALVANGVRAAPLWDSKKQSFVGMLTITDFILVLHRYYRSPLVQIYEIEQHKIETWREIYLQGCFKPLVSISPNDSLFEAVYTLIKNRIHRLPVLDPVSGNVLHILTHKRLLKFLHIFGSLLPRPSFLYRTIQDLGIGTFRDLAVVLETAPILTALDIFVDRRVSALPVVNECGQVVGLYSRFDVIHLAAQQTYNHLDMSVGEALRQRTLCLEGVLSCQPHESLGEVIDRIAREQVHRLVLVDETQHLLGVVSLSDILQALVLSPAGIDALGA
Chain of AMPK (A2/B1/G2) (P54646 whole entry): as the sequence (P54646 whole entry) above
Chain of AMPK (A2/B1/G2) (Q9Y478 whole entry): as the sequence (Q9Y478 whole entry) above
Chain of AMPK (A2/B1/G2) (Q9UGJ0 whole entry): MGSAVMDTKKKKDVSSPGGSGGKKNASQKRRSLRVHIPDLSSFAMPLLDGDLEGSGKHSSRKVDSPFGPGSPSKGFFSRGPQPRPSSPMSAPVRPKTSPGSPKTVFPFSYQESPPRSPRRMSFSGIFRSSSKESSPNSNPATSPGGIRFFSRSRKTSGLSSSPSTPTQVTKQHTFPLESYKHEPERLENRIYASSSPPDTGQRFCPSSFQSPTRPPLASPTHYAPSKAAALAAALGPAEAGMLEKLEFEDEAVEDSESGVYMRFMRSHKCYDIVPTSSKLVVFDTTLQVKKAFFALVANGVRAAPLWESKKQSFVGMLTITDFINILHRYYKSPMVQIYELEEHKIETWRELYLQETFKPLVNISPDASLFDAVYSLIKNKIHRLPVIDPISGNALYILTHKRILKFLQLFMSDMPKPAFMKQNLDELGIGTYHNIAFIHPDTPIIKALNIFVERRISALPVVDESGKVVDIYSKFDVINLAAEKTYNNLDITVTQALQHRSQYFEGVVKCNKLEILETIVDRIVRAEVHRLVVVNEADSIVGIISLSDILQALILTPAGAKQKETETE

What is called AC50 is the midpoint of the concentration-response curve, whichever way the signal moves. High values mean activity only at high concentration, low ones activity at low concentration. For the compound `O=c1[nH]c(-c2c[nH]c3cc(F)c(-c4ccc(C5(O)COC5)nc4)cc23)no1` [Compound I-18, 3-(6-fluoro-5-(6-(3-hydroxyoxetan-3-yl)pyridin-3-yl)-1H-indol-3-yl)-1,2,4-oxadiazol-5(4H)-one], on AMPK (A2/B1/G1), the AC50 fell in the range of 7500 to 20000 nM.

Regarding `COc1ncccc1-c1cc2c(-c3noc(=O)[nH]3)c[nH]c2cc1F` [Compound I-15, 3-(6-fluoro-5-(2-methoxypyridin-3-yl)-1H-indol-3-yl)-1,2,4-oxadiazol-5(4H)-one], the AC50 on AMPK (A2/B1/G1) was 10 to 500 nM; on AMPK (A2/B1/G3), 10 to 500 nM; at AMPK (A2/B1/G2) it was at most 10 nM.

Take `O=c1[nH]c(-c2c[nH]c3cc(F)c(-c4ccc(C5(O)CCC5)cc4)cc23)no1` [Compound I-7, 3-(6-fluoro-5-(4-(1-hydroxycyclobutyl)phenyl)-1H-indol-3-yl)-1,2,4-oxadiazol-5(4H)-one]: the “dose dependence of glucose uptake (printed: activation of insulin / AMPK activation)” value in assay [1] is recorded as “dose dependence”. The glucose uptake result in assay [1] is “induced glucose uptake; also recorded: increased glucose uptake”; in assay [2], “induced glucose uptake”; in assay [3], “did not induce glucose uptake in dose-dependent manner”; in assay [4] it was “induced glucose uptake”. For the same compound, the “AMPK activation activity (glucose uptake assay)” value in assay [3] (diabetic donor) and in assay [3] (healthy donor) was “did not show AMPK activation activity” each time. Moreover, the “dose dependence of glucose uptake (printed: activates insulin)” value in assay [4] (HWP cells, abdomen cells, 100 μM to 0.005 μM, 1 hour) was “dose dependent manner”. Also, the “p-AMPK, p-ACC, and p-Raptor expression” value in assay [5] is recorded as “could induce”.

With `O=c1[nH]c(-c2c[nH]c3cc(Cl)c(-c4ccc(C5(O)CCC5)cc4)cc23)no1` [Compound I-1, 3-(6-chloro-5-(4-(1-hydroxycyclobutyl)phenyl)-1H-indol-3-yl)-1,2,4-oxadiazol-5(4H)-one], the glucose uptake result in assay [1] is listed as “induced glucose uptake; also recorded: increased glucose uptake”; in assay [2], “induced glucose uptake”; in assay [3], “did not induce glucose uptake in dose-dependent manner”; in assay [4], “induced glucose uptake”. For the same compound, the figures for the AC50 on AMPK (A2/B1/G1), at AMPK (A2/B1/G3) and on AMPK (A2/B1/G2) were 10 to 500 nM, at most 10 nM and at most 10 nM, respectively. Further, the “p-AMPK, p-ACC, and p-Raptor expression” value in assay [5] was “could induce”.

`COc1ccc(-c2c(F)cc3[nH]cc(-c4noc(=O)[nH]4)c3c2F)c(OC)n1` [Compound I-17, 3-(5-(2,6-dimethoxypyridin-3-yl)-4,6-difluoro-1H-indol-3-yl)-1,2,4-oxadiazol-5(4H)-one]: the AC50 at AMPK (A2/B1/G1), at AMPK (A2/B1/G3) and at AMPK (A2/B1/G2) was 500 to 5000 nM in each case.

For the compound `O=C(O)c1c[nH]c2cc(Cl)c(-c3ccc(C4CCCO4)cc3)cc12` (centres unmarked) [PF-06409577, reference compound], in assay [1], the “dose dependence of glucose uptake (printed: activation of insulin / AMPK activation)” value is given as “highly variable”. Besides, the “AMPK activation activity (glucose uptake assay)” value in assay [3] (diabetic donor) and in assay [3] (healthy donor) was “significant variability” in each case. In addition, in assay [3], the glucose uptake entry was “did not induce glucose uptake in dose-dependent manner”.

As to `COc1ccc(-c2cc3c(-c4noc(=O)[nH]4)c[nH]c3cc2F)cn1` [Compound I-16, 3-(6-fluoro-5-(6-methoxypyridin-3-yl)-1H-indol-3-yl)-1,2,4-oxadiazol-5(4H)-one], the AC50 on AMPK (A2/B1/G1) was in the range of 5000 to 7500 nM; on AMPK (A2/B1/G3), 500 to 5000 nM; at AMPK (A2/B1/G2), 500 to 5000 nM.

Consider `O=c1[nH]c(-c2c[nH]c3cc(F)c(-c4ccc(C5(O)COC5)cc4)c(F)c23)no1` [Compound I-13, 3-(4,6-difluoro-5-(4-(3-hydroxyoxetan-3-yl)phenyl)-1H-indol-3-yl)-1,2,4-oxadiazol-5(4H)-one], for which the glucose uptake result in assay [1] is “increased glucose uptake”. For the same compound, the AC50 is 10 to 500 nM at AMPK (A2/B1/G1), at most 10 nM on AMPK (A2/B1/G3) and at most 10 nM at AMPK (A2/B1/G2).

For the compound `O=c1[nH]c(-c2c[nH]c3cc(F)c(-c4ccc(C5(O)COC5)cc4)cc23)no1` [Compound I-12, 3-(6-fluoro-5-(4-(3-hydroxyoxetan-3-yl)phenyl)-1H-indol-3-yl)-1,2,4-oxadiazol-5(4H)-one], the AC50 on AMPK (A2/B1/G3) and on AMPK (A2/B1/G2) was 10 to 500 nM each time.

For the compound `O=c1[nH]c(-c2c[nH]c3ccc(N4CC[C@H](O)C4)cc23)no1` [Compound I-20, (S)-3-(5-(3-hydroxypyrrolidin-1-yl)-1H-indol-3-yl)-1,2,4-oxadiazol-5(4H)-one], the values for the AC50 at AMPK (A2/B1/G1) and at AMPK (A2/B1/G3) were 5000 to 7500 nM and 500 to 5000 nM, respectively.

For `COc1ccc(-c2cc3c(-c4noc(=O)[nH]4)c[nH]c3cc2F)c(OC)n1` [Compound I-14, 3-(5-(2,6-dimethoxypyridin-3-yl)-6-fluoro-1H-indol-3-yl)-1,2,4-oxadiazol-5(4H)-one], the AC50 at AMPK (A2/B1/G1) and on AMPK (A2/B1/G3) was 10 to 500 nM in each case.
